Experimental data taken from publication PMC5374710, “Discovery of the first dual GSK3β inhibitor/Nrf2 inducer. A new multitarget therapeutic strategy for Alzheimer’s disease” (Scientific Reports, 2017).
Read-outs that look alike come from different tables or passages of the source.

Legend:
SH-SY5Y cells = assay: Cytotoxicity in SH-SY5Y neuroblastoma cell line (MTT); conditions: 24 h
Method: (§1) Viability was measured as MTT reduction in presence of increasing concentrations of derivatives. Values are expressed as LD50 calculated from dose-response curves of four different concentrations.
(§2) Cells were cultured in 48-well (SH-SY5Y, 1x10^5 cells per well) or 96-well plates (HepG2, 1x10^5 cells per well) for 24 h. […] Control cells were incubated with the same concentration of DMSO (0.1 % final concentration) without any drug.

primary rat glial cells = assay: Nitrite production in LPS-stimulated primary glial cultures (Griess); format: cell-based; conditions: Glial cell, 24 h pre-incubation, 18 h co-incubation with LPS 1 μg/mL, read-out: IC50 nitrite reduction
Description: Therefore, we envisaged the study of compounds 5a–t as potential anti-inflammatory agents. We used primary rat glial cells treated with lipopolysaccharide (LPS) to induce the production of nitrites and ROS as a model of glial activation. Nitrite production is directly proportional to the expression of the iNOS, that is over-expressed when LPS activates glial cells. ROS production is proportional to NOX activation after stimulation with LPS. Results are summarized in Table 2 as IC50s of nitrite production reduction and ROS production reduction. We have included sulforaphane as control in all experiments (see the Supporting Information).
Glial cells were pre-incubated with increasing concentrations of compounds for 24 hours. Then, treatments were removed and cells were incubated with LPS (1 μg/mL) alone or in presence of each compound at the desired concentration. Nitrite production was assessed 18 hours later by modified Griess assay. Briefly, samples (150 μl) were mixed with dapsone (75 μl) and NEDA (75 μl), and the mixture was incubated at room temperature for 5 min. Light absorption was measured at 550 nm in a microplate reader (Labtech, Offenburg, Germany). All data were normalized to basal nitrite production, considering this value as 100% of nitrite production. IC50 values were calculated from dose-response curves represented as percentage of nitrite production reduction induced by the different concentrations of each compound.
Mixed glial cultures were obtained from cerebral cortex of 2-5 day-old Sprague-Dawley rats. After removal of blood vessels and meninges, the forebrains were dissociated in DMEM/F12 medium. After mechanical dissociation, cells were plated (3x10^5 cells/ml) in DMEM/F12 medium with 20% fetal bovine serum (FBS) and 1 % penicillin/streptomycin (10,000 units), at 37 °C and in a 5 % CO2-supplemented air atmosphere. After 5 days, medium was substituted by DMEM/F12 medium with 10 % FBS. Cells were cultured for 7-10 days before treatment.
Primary rat glial cells were treated with compounds 5a-t at increasing concentrations (3, 10, 30 and 60 µM) during 24 h. Thereafter, treatments were removed and glial cells were co-incubated with increasing concentrations of each compound and LPS (1 µg/mL) for 18 h more. At the end of this period, supernatant was collected and the presence of nitrites was analyzed by the Griess method with modifications.^20 Each plate included non-treated cells as basal nitrite production, sulforaphane (SFN, 10 µM) as positive control. Briefly, samples (150 µl) were mixed with DAPSONE (75 µl) and NEDA (75 µl), and the mixture was incubated at room temperature for 5 min. Light absorption was measured at 550 nm in a microplate reader (Labtech, Offenburg, Germany). All data were normalized to basal nitrite production, considering this value as 100% of nitrite production. EC50 values were calculated from dose-response curves represented as percentage of nitrite production reduction induced by the different concentrations of each compound. Concentration response curves were fitted by non-linear regression analysis of individual concentration-response curves using GraphPad Prism software (San Diego, CA, USA). EC50 values are expressed as mean ± SEM of four different experiments in triplicate.

Nrf2 = assay: Nrf2-dependent luciferase reporter assay in AREc32 cell line; format: cell-based; conditions: for EC50: AREc32 cells, read-out: CD (concentration required to double the luciferase reporter activity)
Method: Thereafter, we tested the ability of the compounds to induce the Nrf2 transcription factor. We used an Nrf2-dependent luciferase reporter assay in the AREc32 cell line[45]. Cells were cultured for 24 h and then treated with increasing concentrations of compounds 5a–t (0.3, 3, 10 and 30 μM), including the known inducer sulforaphane, containing an isothiocyanate motive as positive control.
AREc32 cells were plated in 96-well white plates (2 × 10^4 cells/well). After 24 h, cells were incubated with increasing concentrations of each compound in duplicate for 24 h. AREc32 cells express constitutively the plasmid pGL-8xARE that implements 8 copies of the EpRE sequences followed by luciferase reporter gen. Therefore, Nrf2 induction is related to the activation of EpRE sequences, expressing luciferase at the same extent as EpRE sequences are activated. The Luciferase Assay System (Promega E1500), was used according to provider protocol and luminescence was quantified in an Orion II microplate luminometer (Berthold, Germany). Fold induction of luciferase activity was normalized to basal conditions. Data are expressed as CD values, expressing the concentration required to double the luciferase activity. CD values are calculated from dose-response curves generated from fold induction of control conditions vs. inducer concentration and fitted by non-linear regression and data interpolated to 2-fold induction concentration.
Breast cancer cells stably transfected to express luciferase after EpRE sequences MCF-7/AREc32 named AREc32, were kindly provided by Dr. C. Roland Wolf (University of Dundee, UK).^14 AREc32 cells were maintained in DMEM with high glucose-glutamax, supplemented with 10 % FBS, 1 % penicillin-streptomycin (10,000 units), and geneticin (0.8 mg/ml G418) at 37 °C and in a 5 % CO2- air atmosphere.^14
AREc32 cells are constitutively transfected with the pGL-8xARE luciferase reporter gene, inserted after EpRE sequences. Thus, Nrf2 translocation to the nucleus induces the activation of the EpRE sequences, expressing their target phase II antioxidant genes, and expressing luciferase at the same extent.^15 AREc32 cells were plated in 96-well white plates (2X10^4 cells/well). After 24 h, cells were incubated with increasing concentrations of each compound in duplicate for 24 h (dissolved in DMSO to give a final 0.1 % vol/vol concentration of vehicle). Each plate included non-treated cells as basal luciferase expression and tBHQ (10 µM) as positive control. TBHQ is a potent Nrf2 inducer used as control in the development of the AREc32 cells.^14 Transfected clones are selected using G418. AREc32 cells express constitutively the plasmid pGL-8xARE that implements 8 copies of the EpRE sequences followed by a luciferase reporter gene. Therefore, the induction of Nrf2 is proportional to the activation of EpRE sequences, expressing luciferase at the same extent as EpRE sequences are activated. Luciferase production is then assessed by a bioluminescence assay. The Luciferase Assay System (Promega E1500), was used according to the Promega protocol and luminescence was quantified in an Orion II microplate luminometer (Berthold, Germany). Relative Light Units (RLU) were recorded for the contents of each well. Fold induction of luciferase activity was calculated by dividing the RLU obtained for the tests wells for each treatment by the average RLU obtained for the basal conditions. Data are expressed as CD values, expressing the concentration required to double the basal luciferase activity, used to quantify the Nrf2 induction potency. CD values are calculated from dose-response curves generated from fold induction of control conditions vs. inducer concentration and fitted by non-linear regression and data interpolated to value the 2-fold induction concentration, using GraphPad Prism software (San Diego, CA, USA).

HepG2 cells = assay: Hepatotoxicity in HepG2 cell line (MTT); conditions: 24 h
Method: Thus, it is relevant to study the potential neurotoxicity and hepatotoxicity of the novel dual GSK3β inhibitors-Nrf2 inducers 5a–t.
as §1
HepG2 cells were cultured according to supplier indications in EMEM supplemented with 10 % heat-inactivated FBS, 100 µg/mL streptomycin and 100 units/mL penicillin. Cells were maintained at 37 °C in humidified atmosphere of 95 % air and 5 % CO2. For experimental procedures, cells were cultured in 96-well plates at density of 1x10^5 cells/well. Treatments were performed in 1% FBS medium unless other concentration was specified. Cells were used from 4 up to 13 passages.
as §2

SMILES	IC50 (primary rat glial cells) [µM]	EC50 (Nrf2; Arec32, 24 h) [µM]	EC50 (Nrf2; 24 h) [µM]	SH-SY5Y LD50 (SH-SY5Y cells) [µM]	HepG2 LD50 (HepG2 cells) [µM]	Luciferase activity increase alone versus in presence of Li (10 mM) (Nrf2; 3 μM to 30 μM, 24 h)
Cc1[nH]nc2c1C(c1ccccc1)C(C#N)=C(N)O2 (stereo not drawn) [Compound 5a, 6-Amino-3-methyl-4-phenyl-2,4-dihydropyrano[2,3-c]pyrazole-5-carbonitrile]	> 60	20.5 ± 3.4	–	> 100	> 100	–
Cc1n[nH]c2c1C(c1ccc(F)cc1)C(C#N)=C(N)O2 (stereo not drawn) [Compound 5h, 6-Amino-4-(4-fluorophenyl)-3-methyl-2,4-dihydropyrano[2,3-c]pyrazole-5-carbonitrile]	11.3 ± 1.15	14.6 ± 4	–	> 100	> 100	–
Cc1ccc(C2C(C#N)=C(N)Oc3[nH]nc(C)c32)cc1 (stereo not drawn) [Compound 5g, 6-Amino-3-methyl-4-(4-methylphenyl)-2,4-dihydropyrano[2,3-c]pyrazole-5-carbonitrile]	22.3 ± 3.82	25.4 ± 2.5	–	> 100	> 100	–
COc1ccc(C2C(C#N)=C(N)Oc3n[nH]c(C)c32)cc1 (stereo not drawn) [Compound 5d, 6-Amino-4-(4-methoxyphenyl)-3-methyl-2,4-dihydropyrano[2,3-c]pyrazole-5-carbonitrile]	35.4 ± 2.57	25.3 ± 2.4	–	> 100	> 100	–
Cc1ccccc1C1C(C#N)=C(N)Oc2[nH]nc(C)c21 (stereo not drawn) [Compound 5e, 6-Amino-3-methyl-4-(2-methylphenyl)-2,4-dihydropyrano[2,3-c]pyrazole-5-carbonitrile]	34.3 ± 3.84	> 30	–	> 100	> 100	–
COc1cccc(C2C(C#N)=C(N)Oc3n[nH]c(C)c32)c1 (stereo not drawn) [Compound 5c, 6-Amino-4-(3-methoxyphenyl)-3-methyl-2,4-dihydropyrano[2,3-c]pyrazole-5-carbonitrile]	12.9 ± 0.86	11.3 ± 1.3	–	> 100	> 100	–
Cc1cccc(C2C(C#N)=C(N)Oc3n[nH]c(C)c32)c1 (stereo not drawn) [Compound 5f, 6-Amino-3-methyl-4-(3-methylphenyl)-2,4-dihydropyrano[2,3-c]pyrazole-5-carbonitrile]	13.4 ± 1.44	14.1 ± 2.1	–	> 100	> 100	–
Cc1n[nH]c2c1C(c1ccccc1Cl)C(C#N)=C(N)O2 (stereo not drawn) [Compound 5i, 6-Amino-4-(2-chlorophenyl)-3-methyl-2,4-dihydropyrano[2,3-c]pyrazole-5-carbonitrile]	> 60	23.5 ± 3.2	–	> 100	> 100	–

Now from value to molecule, other results behind:

IC50 (primary rat glial cells) [µM]	EC50 (Nrf2; Arec32, 24 h) [µM]	EC50 (Nrf2; 24 h) [µM]	SMILES	SH-SY5Y LD50 (SH-SY5Y cells) [µM]	HepG2 LD50 (HepG2 cells) [µM]	Luciferase activity increase alone versus in presence of Li (10 mM) (Nrf2; 3 μM to 30 μM, 24 h)
26 ± 2.74	8.31 ± 1.5	–	Cc1n[nH]c2c1C(c1ccc(Cl)cc1)C(C#N)=C(N)O2 (stereo not drawn) [Compound 5k, 6-Amino-4-(4-chlorophenyl)-3-methyl-2,4-dihydropyrano[2,3-c]pyrazole-5-carbonitrile]	> 100	> 100	–
> 60	17.6 ± 8.4	–	Cc1n[nH]c2c1C(c1cccs1)C(C#N)=C(N)O2 (stereo not drawn) [Compound 5r, 6-Amino-3-methyl-4-(thiophen-2-yl)-2,4-dihydropyrano[2,3-c]pyrazole-5-carbonitrile]	> 100	> 100	–
17.5 ± 2.45	25.2 ± 2.4	–	Cc1n[nH]c2c1C(c1ccco1)C(C#N)=C(N)O2 (stereo not drawn) [Compound 5q, 6-Amino-4-(furan-2-yl)-3-methyl-2,4-dihydropyrano[2,3-c]pyrazole-5-carbonitrile]	> 100	> 100	–
15.8 ± 5.23	11.3 ± 5.5	–	Cc1[nH]nc2c1C(c1ccccc1[N+](=O)[O-])C(C#N)=C(N)O2 (stereo not drawn) [Compound 5n, 6-Amino-3-methyl-4-(2-nitrophenyl)-2,4-dihydropyrano[2,3-c]pyrazole-5-carbonitrile]	> 100	> 100	–
11.4 ± 2.27	< 10	9.37 ± 1.4	Cc1[nH]nc2c1C(c1ccc(Br)cc1)C(C#N)=C(N)O2 (stereo not drawn) [Compound 5m, 6-Amino-4-(4-bromophenyl)-3-methyl-2,4-dihydropyrano[2,3-c]pyrazole-5-carbonitrile]	> 100	> 100	to the same extent and without statistically significant differences
26.7 ± 4.86	15 ± 4.3	–	Cc1[nH]nc2c1C(c1ccc([N+](=O)[O-])cc1)C(C#N)=C(N)O2 (stereo not drawn) [Compound 5p, 6-Amino-3-methyl-4-(4-nitrophenyl)-2,4-dihydropyrano[2,3-c]pyrazole-5-carbonitrile]	> 100	> 100	–
7.23 ± 1.1	8.91 ± 2.2	–	Cc1[nH]nc2c1C(c1cccnc1)C(C#N)=C(N)O2 (stereo not drawn) [Compound 5s, 6-Amino-3-methyl-4-(pyridin-3-yl)-2,4-dihydropyrano[2,3-c]pyrazole-5-carbonitrile]	> 100	> 100	–
40.8 ± 2.23	18.9 ± 2.9	–	Cc1[nH]nc2c1C(c1cccc([N+](=O)[O-])c1)C(C#N)=C(N)O2 (stereo not drawn) [Compound 5o, 6-Amino-3-methyl-4-(3-nitrophenyl)-2,4-dihydropyrano[2,3-c]pyrazole-5-carbonitrile]	> 100	> 100	–
